Our source for the IC50 values is article PMC6557261 (Cell chemical biology, 2019).

By IC50 is commonly meant the concentration that inhibits the measured activity by half.

The target in one experiment is T1, peroxiredoxin 2 (Prx2) (Homo sapiens, UniProt P32119).
T1 sequence (P32119 2-198): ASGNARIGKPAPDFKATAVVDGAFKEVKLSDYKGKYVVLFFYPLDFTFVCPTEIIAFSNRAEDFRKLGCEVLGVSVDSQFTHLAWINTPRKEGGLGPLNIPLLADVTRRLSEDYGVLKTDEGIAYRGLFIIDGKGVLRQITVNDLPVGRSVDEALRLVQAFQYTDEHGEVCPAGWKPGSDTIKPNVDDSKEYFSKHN
Kind of experiment: glutamine synthetase protection assay with recombinant Prx2. Format: biochemical.

Another experiment has as its target T2, peroxiredoxin 1 (Prx1) (Homo sapiens, UniProt Q06830).
T2 sequence (Q06830 2-199): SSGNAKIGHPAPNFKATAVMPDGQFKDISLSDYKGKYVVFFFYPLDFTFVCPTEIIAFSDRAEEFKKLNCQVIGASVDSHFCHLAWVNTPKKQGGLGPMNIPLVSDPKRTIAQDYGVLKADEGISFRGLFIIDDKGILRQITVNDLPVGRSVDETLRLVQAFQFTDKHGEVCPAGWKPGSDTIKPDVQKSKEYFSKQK
The experiment in a line: glutamine synthetase protection assay with recombinant Prx1. Format: biochemical.

On to `CCC[C@H]1O[C@@H]2CC(=O)O[C@@H]2C2=C1C(=O)c1c(O)cccc1C2=O` [FB, frenolicin B], for which the results for the IC50 on peroxiredoxin 2 (Prx2) and at peroxiredoxin 1 (Prx1) were 4200 nM and 200 nM, respectively.
